These results are taken from ChEMBL document CHEMBL1144970, “Protective effects of steroid saponins from Paris polyphylla var. yunnanensis on ethanol- or indomethacin-induced gastric mucosal lesions in rats: structural requirement for activity and mode of action” (Bioorg Med Chem Lett, 2003).

The subject of series [1] is Rattus norvegicus. As to the kind of experiment: Reduction in length (control value = 59.8+/-6) of gastric lesions induced by endomethacin was measured, after administration of 5 mg/kg po in rats. Format: functional, Stomach.
For series [2], the system named is Rattus norvegicus. The series is described as follows: pH of the gastric juice (Control value = 1.42+/-0.02) of stomach content of pylorus ligated rats was measured (20 mg/kg po of the Compound was administered 1 hr before the pylorus ligation). Type of series: ADME, organism-based. The conditions noted are these: in vivo.
The subject of series [3] is Rattus norvegicus. As to the kind of experiment: Percent inhibition of gastric lesions induced by endomethacin was measured, after administration of 10 mg/kg po in rats. Format: functional. The following applies: Stomach.
Series [4] has as its system Rattus norvegicus. As to the kind of experiment: Acid output from the stomach (control value = 120.3+/-19.7) in pylorus ligated rats (20 mg/kg po of the Compound was administered 1 hr before the pylorus ligation). Type of series: functional.
Series [5] relates to Rattus norvegicus. As to the kind of experiment: Percent inhibition of gastric lesions induced by ethanol was measured, after administration of 20 mg/kg po in rats. Type of series: functional. The following applies: Stomach.
Series [6] has as its system Rattus norvegicus. The series is described as follows: Percent inhibition of gastric lesions induced by endomethacin was measured, after administration of 7.5 mg/kg po in rats. Type of series: functional. The conditions noted are these: Stomach.
The subject of series [7] is Rattus norvegicus. As to the kind of experiment: Reduction in length (control value = 159.2+/-21) of gastric lesions induced by ethanol was measured, after administration of 10 mg/kg po in rats. Format: functional, Stomach.
For series [8], the system named is Rattus norvegicus. The series is described as follows: Percent inhibition of gastric lesions induced by ethanol was measured, after administration of 15 mg/kg po in rats. Format: functional. The following applies: Stomach.
Series [9] has as its system Rattus norvegicus. As to the kind of experiment: Reduction in length (control value = 59.8+/-6) of gastric lesions induced by endomethacin was measured, after administration of 2.5 mg/kg po in rats. Type of series: functional, Stomach.
Series [10] relates to Rattus norvegicus. The series is described as follows: Reduction in length (control value = 159.2+/-21) of gastric lesions induced by ethanol was measured, after administration of 15 mg/kg po in rats. Type of series: functional, Stomach.
The subject of series [11] is Rattus norvegicus. As to the kind of experiment: pH of the gastric juice (Control value = 1.42+/-0.02) of stomach content of pylorus ligated rats was measured (10 mg/kg po of the Compound was administered 1 hr before the pylorus ligation). The following applies: in vivo. Type of series: ADME, organism-based.
Series [12] concerns Rattus norvegicus. As to the kind of experiment: Percent inhibition of gastric lesions induced by endomethacin was measured, after administration of 5 mg/kg po in rats. The following applies: Stomach. Format: functional.
Series [13] deals with Rattus norvegicus. As to the kind of experiment: Volume of the gastric juice (Control value = 4.7+/-0.4) of stomach content of pylorus ligated rats was measured (10 mg/kg po of the Compound was administered 1 hr before the pylorus ligation). Type of series: functional.
Series [14] concerns Rattus norvegicus. The series is described as follows: Acid output from the stomach (control value = 120.3+/-19.7) in pylorus ligated rats (10 mg/kg po of the Compound was administered 1 hr before the pylorus ligation). Type of series: functional.
Series [15] has as its system Rattus norvegicus. The series is described as follows: Reduction in length (control value = 59.8+/-6) of gastric lesions induced by endomethacin was measured, after administration of 7.5 mg/kg po in rats. Type of series: functional, Stomach.
For series [16], the system named is Rattus norvegicus. As to the kind of experiment: Volume of the gastric juice (Control value = 4.7+/-0.4) of stomach content of pylorus ligated rats was measured (5 mg/kg po of the Compound was administered 1 hr before the pylorus ligation). Format: functional.
Series [17] deals with Rattus norvegicus. As to the kind of experiment: Volume of the gastric juice (Control value = 4.7+/-0.4) of stomach content of pylorus ligated rats was measured (20 mg/kg po of the Compound was administered 1 hr before the pylorus ligation). Type of series: functional.
Series [18] has as its system Rattus norvegicus. As to the kind of experiment: Percent inhibition of gastric lesions induced by ethanol was measured, after administration of 10 mg/kg po in rats. Type of series: functional. The conditions noted are these: Stomach.
Series [19] concerns Rattus norvegicus. The series is described as follows: pH of the gastric juice (Control value = 1.42+/-0.02) of stomach content of pylorus ligated rats was measured (5 mg/kg po of the Compound was administered 1 hr before the pylorus ligation). The conditions noted are these: in vivo. Type of series: ADME, organism-based.
Series [20] deals with Rattus norvegicus. The series is described as follows: Percent inhibition of gastric lesions induced by endomethacin was measured, after administration of 2.5 mg/kg po in rats. Format: functional. The following applies: Stomach.
Series [21] deals with Rattus norvegicus. As to the kind of experiment: Reduction in length (control value = 159.2+/-21) of gastric lesions induced by endomethacin was measured, after administration of 20 mg/kg po in rats. Type of series: functional, Stomach.
The test system of series [22] is Rattus norvegicus. As to the kind of experiment: Acid output from the stomach (control value = 120.3+/-19.7) in pylorus ligated rats (5 mg/kg po of the Compound was administered 1 hr before the pylorus ligation). Format: functional.
Series [23] concerns Rattus norvegicus. The series is described as follows: Percent inhibition of gastric lesions induced by ethanol was measured, after administration of 2.5 mg/kg po in rats. The conditions noted are these: Stomach. Format: functional.
The subject of series [24] is Rattus norvegicus. As to the kind of experiment: Reduction in length (control value = 126+/-9.1) of gastric lesions induced by ethanol was measured, after administration of 2.5 mg/kg po in rats. Type of series: functional, Stomach.
Series [25] relates to Rattus norvegicus. As to the kind of experiment: Percent inhibition of gastric lesions induced by ethanol was measured, after administration of 5 mg/kg po in rats. Format: functional. The conditions noted are these: Stomach.
Series [26] relates to Rattus norvegicus. The series is described as follows: Reduction in length ((control value = 126+/-9.1) of gastric lesions induced by ethanol was measured, after administration of 5 mg/kg po in rats. Type of series: functional, Stomach.

Regarding `COc1ccc2[nH]c([S+]([O-])Cc3ncc(C)c(OC)c3C)nc2c1` (stereo unspecified) [OMEPRAZOLE], the Length in the series with Rattus norvegicus [1] came to 24.6 mm; with Rattus norvegicus [7], 90.6 mm; in the series on Rattus norvegicus [9], 34.4 mm; with Rattus norvegicus [10] it was 28.6 mm; in the series with Rattus norvegicus [15], 8 mm; in the series with Rattus norvegicus [21], 16.9 mm. Also, the values for the pH with Rattus norvegicus [2], in the series with Rattus norvegicus [11] and with Rattus norvegicus [19] were 5.54, 1.8 and 1.63, respectively. Besides, the figures for the inhibition in vivo at 10 mg/kg in the series on Rattus norvegicus [3] and in the series with Rattus norvegicus [18] were 98.2% and 43.1%, respectively. In addition, the results for the Acid output with Rattus norvegicus [4], with Rattus norvegicus [14] and with Rattus norvegicus [22] were 14.6 u equiv hr-1, 46.8 u equiv hr-1 and 62.6 u equiv hr-1, respectively. Testing at 20 mg/kg in the series with Rattus norvegicus [5] gave an inhibition in vivo of 89.4%. In addition, the inhibition in vivo at 7.5 mg/kg in the series on Rattus norvegicus [6] amounted to 86.6%. For the same compound, in the series with Rattus norvegicus [8], the inhibition in vivo at 15 mg/kg worked out at 82%. Further, the inhibition in vivo at 5 mg/kg in the series with Rattus norvegicus [12] amounted to 58.9%. For the same compound, the Volume with Rattus norvegicus [13] amounted to 2.5 ml 4hr-1; in the series with Rattus norvegicus [16], 3.3 ml 4hr-1; in the series on Rattus norvegicus [17], 2.2 ml 4hr-1. Further, the inhibition in vivo at 2.5 mg/kg in the series on Rattus norvegicus [20] is 42.5%.

In turn, `C[C@@H](CC[C@@]1(O)O[C@H]2C[C@H]3[C@@H]4CC=C5C[C@@H](O[C@@H]6O[C@H](CO)[C@@H](O)[C@H](O[C@@H]7O[C@H](CO)[C@@H](O)[C@H](O)[C@H]7O)[C@H]6O[C@@H]6O[C@@H](C)[C@H](O)[C@@H](O)[C@H]6O)CC[C@]5(C)[C@H]4CC[C@]3(C)[C@H]2[C@@H]1C)CO[C@@H]1O[C@H](CO)[C@@H](O)[C@H](O)[C@H]1O` [PROTOGRACILLIN] came in with an inhibition in vivo at 2.5 mg/kg with Rattus norvegicus [23] of 8.5%. The results for the Length in the series on Rattus norvegicus [24] and with Rattus norvegicus [26] were 115 mm and 108 mm, respectively. In the series on Rattus norvegicus [25], this compound yielded an inhibition in vivo at 5 mg/kg of 14.1%.

Broadly, the inhibition in vivo is the change of the read-out against control, counted positive when it falls. A higher inhibition in vivo goes with strong suppression.
